From ChEMBL document CHEMBL6109153, “Development of Membrane-Targeting Osthole Derivatives Containing Pyridinium Quaternary Ammonium Moieties with Potent Anti-Methicillin-Resistant Staphylococcus aureus Properties” (J Med Chem, 2025)
Activity calls are given as the source filed them. The calls are words filed in the database; no cut-off is given here.

Key:
Staphylococcus aureus [1] = experiment: Antibacterial activity against methicillin-resistant Staphylococcus aureus M13 incubated for 16 to 20 hrs by broth microdilution method; format: functional; settings: time 16-20 hrs
[2] = Toxicity in KM mouse assessed as abnormality in heart at 20 mg/kg, sc by H and E staining based analysis; format: organism-based; settings: in vivo
[3] = Toxicity in BALB/c mouse assessed as normal behavior at 5 to 40 mg/kg, ip measured for 7 days; format: organism-based; settings: in vivo, 168 h, dose 5-40 mg/kg, time 7 day
Staphylococcus aureus [4] = experiment: Antibacterial activity against methicillin-resistant Staphylococcus aureus M11 infected in BALB/c mouse model of Sepsis assessed as smooth in inner epidermis at 8 mg/kg measured after 24 hrs; format: functional, organism-based
[5] = Toxicity in BALB/c mouse model of Sepsis infected with methicillin-resistant Staphylococcus aureus M11 assessed as lesions in spleen at 4 to 8 mg/kg measured after 24 hrs by H and E staining based analysis; format: organism-based; settings: in vivo, dose 4-8 mg/kg
Staphylococcus aureus [6] = experiment: Antibacterial activity against methicillin-resistant Staphylococcus aureus M11 up to 128 ug/ml in presence of 32 ug/ml peptidoglycan incubated for 16 to 18 hrs; format: functional; settings: dose <= 128 µg/ml, time 16-18 hrs
Staphylococcus aureus [7] = experiment: Induction of resistance development in Staphylococcus aureus ATCC 29213 at 0.5 times MIC measured after 20 passages by broth microdilution method; format: functional, organism-based
Staphylococcus aureus [8] = experiment: Induction of cell permeability in methicillin-resistant Staphylococcus aureus M11 assessed as increase in fluorescence intensity by SYTOX Green dye based analysis; format: functional, organism-based
Staphylococcus aureus [9] = experiment: Disruption of cell membrane in methicillin-resistant Staphylococcus aureus M11 assessed as roughness in cell membrane at 4 ug/ml incubated for 4 hrs by SEM analysis; format: functional, organism-based; settings: dose 4.0 µg/ml
Staphylococcus aureus [10] = experiment: Antibacterial activity against methicillin-resistant Staphylococcus aureus M11 infected in BALB/c mouse model of Sepsis assessed as reduction in abscess size on back at 4 mg/kg measured after 24 hrs; format: functional, organism-based
Staphylococcus aureus [11] = experiment: Antibacterial activity against methicillin-resistant Staphylococcus aureus M11 infected in BALB/c mouse model of Sepsis measured after 24 hrs; format: functional, organism-based; settings: dose 4-8 mg/kg
Staphylococcus aureus [12] = experiment: Antibacterial activity against methicillin-resistant Staphylococcus aureus M11 infected in BALB/c mouse model of Sepsis assessed as reduction in swelling in inner epidermal abscesses at 4 mg/kg measured after 24 hrs; format: functional, organism-based
Staphylococcus aureus [13] = experiment: Antibacterial activity against methicillin-resistant Staphylococcus aureus M14 incubated for 16 to 20 hrs by broth microdilution method; format: functional; settings: time 16-20 hrs
Staphylococcus aureus [14] = experiment: Disruption of cell membrane in methicillin-resistant Staphylococcus aureus M11 assessed as increase in red fluorescence in nuclei at 4 ug/ml incubated for 4 hrs by DAPI/PI staining based analysis; format: functional, organism-based; settings: dose 4.0 µg/ml
Staphylococcus aureus [15] = experiment: Antibacterial activity against methicillin-resistant Staphylococcus aureus M11 infected in BALB/c mouse model of Sepsis assessed as reduction in IL-6 level measured after 24 hrs; format: functional, organism-based; settings: dose 4-8 mg/kg
[16] = Toxicity in BALB/c mouse assessed as maximum safe dose administered intraperitoneally measured for 7 days; settings: in vivo, route ip, time 7 day
[17] = Toxicity in KM mouse assessed as abnormality in kidney at 20 mg/kg, sc by H and E staining based analysis; format: organism-based; settings: in vivo
[18] = Toxicity in BALB/c mouse assessed as adverse reactions at 5 to 40 mg/kg, ip measured for 7 days; format: organism-based; settings: in vivo, 168 h, dose 5-40 mg/kg, time 7 day
Staphylococcus aureus [19] = experiment: Antibacterial activity against methicillin-resistant Staphylococcus aureus M22 incubated for 16 to 20 hrs by broth microdilution method; format: functional; settings: time 16-20 hrs
[20] = Toxicity in BALB/c mouse model of Sepsis infected with methicillin-resistant Staphylococcus aureus M11 assessed as lesions in liver at 4 to 8 mg/kg measured after 24 hrs by H and E staining based analysis; format: organism-based; settings: in vivo, dose 4-8 mg/kg
[21] = Toxicity in KM mouse assessed as abnormality in liver at 20 mg/kg, sc by H and E staining based analysis; format: organism-based; settings: in vivo
Staphylococcus aureus [22] = experiment: Antibacterial activity against methicillin-resistant Staphylococcus aureus M21 incubated for 16 to 20 hrs by broth microdilution method; format: functional; settings: time 16-20 hrs
Escherichia coli = experiment: Antibacterial activity against Escherichia coli ATCC 25922 incubated for 16 to 20 hrs by broth microdilution method; format: functional; settings: time 16-20 hrs
[23] = Toxicity in BALB/c mouse assessed as obvious damage in tissues of organs at 10 mg/kg, ip measured for 7 days by H and E staining based analysis; format: organism-based; settings: in vivo, 168 h, time 7 day
Staphylococcus aureus [24] = experiment: Induction of ROS production in methicillin-resistant Staphylococcus aureus M11 assessed as fold increase at 32 ug/ml incubated for 1 hr by DCFH-DA probe based analysis relative to control; format: functional; settings: dose 32 µg/ml
[25] = Toxicity in BALB/c mouse model of Sepsis infected with methicillin-resistant Staphylococcus aureus M11 assessed as pathological change in heart at 4 to 8 mg/kg measured after 24 hrs by H and E staining based analysis; format: organism-based; settings: in vivo, dose 4-8 mg/kg
Staphylococcus aureus [26] = experiment: Antibacterial activity against methicillin-resistant Staphylococcus aureus M11 up to 128 ug/ml in presence of cardiolipin incubated for 16 to 18 hrs; format: functional, organism-based; settings: dose <= 128.0 µg/ml, time 16-18 hrs
[27] = Toxicity in BALB/c mouse model of Sepsis infected with methicillin-resistant Staphylococcus aureus M11 assessed as lesions in kidney at 4 to 8 mg/kg measured after 24 hrs by H and E staining based analysis; format: organism-based; settings: in vivo, dose 4-8 mg/kg
Staphylococcus aureus [28] = experiment: Bactericidal activity against methicillin-resistant Staphylococcus aureus M11 at 8 ug/ml measured up to 6 hrs in presence of 50% plasma; format: functional, organism-based; settings: dose 8.0 µg/ml
[29] = Toxicity in KM mouse assessed as abnormality in spleen at 20 mg/kg, sc by H and E staining based analysis; format: organism-based; settings: in vivo
Staphylococcus aureus [30] = experiment: Disruption of cell membrane in methicillin-resistant Staphylococcus aureus M11 assessed as cell membrane rupture at 4 ug/ml incubated for 4 hrs by SEM analysis; format: functional, organism-based; settings: dose 4.0 µg/ml
Staphylococcus aureus [31] = experiment: Antibacterial activity against methicillin-resistant Staphylococcus aureus M11 infected in BALB/c mouse model of Sepsis assessed as reduction in redness in inner epidermal abscesses at 4 mg/kg measured after 24 hrs; format: functional, organism-based
Staphylococcus aureus [32] = experiment: Antibacterial activity against methicillin-resistant Staphylococcus aureus M11 infected in BALB/c mouse model of Sepsis assessed as vacuolar degeneration in renal epithelial cells at 20 mg/kg, ip measured after 48 hrs; format: functional, organism-based
[33] = Toxicity in BALB/c mouse model of Sepsis infected with methicillin-resistant Staphylococcus aureus M11 assessed as survival rate at 20 mg/kg, ip measured after 7 days; format: organism-based; settings: in vivo, 168 h, time 7 day
[34] = Toxicity in BALB/c mouse assessed as lesions in tissues of organs at 30 mg/kg, ip measured for 7 days by H and E staining based analysis; format: organism-based; settings: in vivo, 168 h, time 7 day
Staphylococcus aureus [35] = experiment: Antibacterial activity against methicillin-resistant Staphylococcus aureus M11 infected in BALB/c mouse model of Sepsis assessed as reduction in bacterial load in spleen at 20 mg/kg, ip measured after 48 hrs; format: functional
[36] = Toxicity in KM mouse assessed as erythema on dorsal skin at <=30 mg/kg, sc; format: organism-based; settings: in vivo
[37] = Toxicity in KM mouse assessed as abnormality in kidney at 30 mg/kg, sc by H and E staining based analysis; format: organism-based; settings: in vivo

Row | Structure (SMILES) | MIC (Staphylococcus aureus [1]) [µg/mL] | Activity [3] | Activity (Staphylococcus aureus [4]) | Activity [5] | MIC (Staphylococcus aureus [6]) [µg/mL] | Activity (Staphylococcus aureus [7]) | Activity (Staphylococcus aureus [8]) | Activity (Staphylococcus aureus [9]) | Activity (Staphylococcus aureus [10]) | Activity (Staphylococcus aureus [11]) | Activity (Staphylococcus aureus [12]) | MIC (Staphylococcus aureus [13]) [µg/mL] | Activity (Staphylococcus aureus [14]) | Activity (Staphylococcus aureus [15]) | MTD at 168 h [16] [mg/kg] | Activity [18] | MIC (Staphylococcus aureus [19]) [µg/mL] | Activity [20] | MIC (Staphylococcus aureus [22]) [µg/mL] | MIC (Escherichia coli) [µg/mL] | other results
1 | CCCCCNC(=O)C[n+]1ccc(SCCCCCOc2ccc3ccc(=O)oc3c2CC=C(C)C)cc1.[Br-] | 1 | Non-toxic | Active | Non-toxic | 1 | inactive | Dose-dependent-effect | Active | Active | Dose-dependent-effect | Active | 0.5 | Active | Dose-dependent-effect; Compound Has Slightly Greater Efficacy Than Vancomycin | 10 | Non-toxic | 0.5 | Non-toxic | 0.5 | > 128 | Activity [2]: Non-toxic; Activity [17]: Non-toxic; Activity [21]: Non-toxic; Activity [23]: Non-toxic; fold change (FC) (Staphylococcus aureus [24]): 1.8; Activity [25]: Non-toxic; Activity (Staphylococcus aureus [26]): Active; Compound Showed Only Minor Or No Change In Mic; Activity [27]: Non-toxic; Activity (Staphylococcus aureus [28]): Active; Activity [29]: Non-toxic; Activity (Staphylococcus aureus [30]): Active; Activity (Staphylococcus aureus [31]): Active
2 | CC(C)=CCc1c(OCCCCSc2cc[n+](CC(=O)N(CC(C)C)CC(C)C)cc2)ccc2ccc(=O)oc12.[Br-] | 1 | Non-toxic | Active | Non-toxic | 1 | inactive | Dose-dependent-effect | Active | Active | Dose-dependent-effect | Active | 0.5 | Active | Dose-dependent-effect; Compound Has Slightly Greater Efficacy Than Vancomycin | 30 | Non-toxic | 0.5 | Non-toxic | 0.5 | > 128 | Activity (Staphylococcus aureus [32]): Active; Improvement Was Comparable To That In Vancomycin Group; Survival [33]: 66.7%; Activity [34]: Non-toxic; Activity (Staphylococcus aureus [35]): 4.33 log10CFU/ml; Activity [36]: Non-toxic; Activity [37]: Non-toxic; fold change (FC) (Staphylococcus aureus [24]): 2; Activity [25]: Non-toxic; Activity (Staphylococcus aureus [26]): Active; Compound Showed Only Minor Or No Change In Mic; Activity [27]: Non-toxic; Activity (Staphylococcus aureus [28]): Active; Activity (Staphylococcus aureus [30]): Active; Activity (Staphylococcus aureus [31]): Active
